Measured values reported in ChEMBL document CHEMBL1773036, “Scalarane sesterterpenes from the sponge Hyatella sp” (J Nat Prod, 2011).
Converted amounts (≈) assume the structure as drawn.

How the values were obtained:
K562 = experiment: Cytotoxicity against human K562 cells by MTT assay; type: functional; conditions: read-out: LC50 (the source's name)
Escherichia coli = experiment: Antibacterial activity against Escherichia coli ATCC 25922 after 24 hrs by twofold serial dilution method; type: functional; conditions: ATCC 25922, 24 h
Proteus vulgaris = experiment: Antibacterial activity against Proteus vulgaris ATCC 3851 after 24 hrs by twofold serial dilution method; type: functional; conditions: ATCC 3851, 24 h
Salmonella typhimurium = experiment: Antibacterial activity against Salmonella typhimurium ATCC 14028 after 24 hrs by twofold serial dilution method; type: functional, Salmonella enterica subsp. enterica serovar Typhimurium; conditions: Salmonella enterica, ATCC 14028, 24 h
Micrococcus luteus = experiment: Antibacterial activity against Micrococcus luteus IFO 12708 after 24 hrs by twofold serial dilution method; type: functional; conditions: IFO 12708, 24 h
Bacillus subtilis = experiment: Antibacterial activity against Bacillus subtilis ATCC 6633 after 24 hrs by twofold serial dilution method; type: functional; conditions: ATCC 6633, 24 h
Staphylococcus aureus = experiment: Antibacterial activity against Staphylococcus aureus ATCC 6538p after 24 hrs by twofold serial dilution method; type: functional
[1] = Inhibition of Magnaporthe grisea Guy 11 isocitrate lyase; parameters: species or system Pyricularia oryzae

## CC(=O)OC[C@]12CCCC(C)(C)[C@@H]1CC[C@]1(C)[C@@H]2C[C@@H](OC(C)=O)[C@]2(C)[C@@H]3C(=CC[C@@H]12)CO[C@H]3O
K562
  CC50: 39.5 µM
Escherichia coli
  MIC: > 100 µg/mL
Proteus vulgaris
  MIC: 3.12 µg/mL (≈ 6.39 µM)
Salmonella typhimurium
  MIC: > 100 µg/mL
Micrococcus luteus
  MIC: > 100 µg/mL
Bacillus subtilis
  MIC: 0.78 µg/mL (≈ 1.6 µM)
Staphylococcus aureus
  MIC: > 100 µg/mL

## CO[C@@H]1OC(=O)C2=CC[C@H]3[C@]4(C)CC[C@H]5C(C)(C)CCC[C@]5(C)[C@H]4C[C@@H](OC(C)=O)[C@]3(C)[C@H]21
K562
  CC50: 38.4 µM
Escherichia coli
  MIC: > 100 µg/mL
Proteus vulgaris
  MIC: > 100 µg/mL
Salmonella typhimurium
  MIC: > 100 µg/mL
Micrococcus luteus
  MIC: > 100 µg/mL
Bacillus subtilis
  MIC: > 100 µg/mL
Staphylococcus aureus
  MIC: > 100 µg/mL
[1]
  IC50: 40.8 µM

## CO[C@@H]1OCC2=CC[C@H]3[C@]4(C)CC[C@H]5C(C)(C)CCC[C@]5(C)[C@H]4C[C@@H](O)[C@]3(C)[C@H]21
K562
  CC50: 24.6 µM
Escherichia coli
  MIC: > 100 µg/mL
Proteus vulgaris
  MIC: > 100 µg/mL
Salmonella typhimurium
  MIC: > 100 µg/mL
Micrococcus luteus
  MIC: > 100 µg/mL
Bacillus subtilis
  MIC: > 100 µg/mL
Staphylococcus aureus
  MIC: > 100 µg/mL

## CC(=O)OC[C@]12CCCC(C)(C)[C@@H]1CC[C@]1(C)[C@@H]2C[C@@H](O)[C@]2(C)[C@@H]3C(=CC[C@@H]12)CO[C@H]3O
K562
  CC50: 19.5 µM
Escherichia coli
  MIC: > 100 µg/mL
Proteus vulgaris
  MIC: 12.6 µg/mL (≈ 28.2 µM)
Salmonella typhimurium
  MIC: 12.5 µg/mL (≈ 28 µM)
Micrococcus luteus
  MIC: 12.5 µg/mL (≈ 28 µM)
Bacillus subtilis
  MIC: 6.25 µg/mL (≈ 14 µM)
Staphylococcus aureus
  MIC: 25 µg/mL (≈ 56 µM)
[1]
  IC50: 107 µM

## CO[C@@H]1OCC2=CC[C@H]3[C@]4(C)CC[C@H]5C(C)(C)CCC[C@]5(C)[C@H]4C[C@@H](OC(C)=O)[C@]3(C)[C@H]21
K562
  CC50: > 100 µM
Escherichia coli
  MIC: > 100 µg/mL
Proteus vulgaris
  MIC: > 100 µg/mL
Salmonella typhimurium
  MIC: > 100 µg/mL
Micrococcus luteus
  MIC: > 100 µg/mL
Bacillus subtilis
  MIC: > 100 µg/mL
Staphylococcus aureus
  MIC: > 100 µg/mL

## CO[C@@H]1C[C@H]2[C@]3(C)CC[C@H]4C(C)(C)CCC[C@]4(C)[C@H]3C[C@@H](OC(C)=O)[C@]2(C)C2=C1C(=O)N(CC(=O)[O-])[C@H]2OC.[Na+]
K562
  CC50: 27 µM
Escherichia coli
  MIC: 100 µg/mL
Proteus vulgaris
  MIC: 25 µg/mL
Salmonella typhimurium
  MIC: 50 µg/mL
Micrococcus luteus
  MIC: 25 µg/mL
Bacillus subtilis
  MIC: 6.25 µg/mL
Staphylococcus aureus
  MIC: 50 µg/mL
[1]
  IC50: 176 µM

## C[C@@]1(CO)CCC[C@]2(C)[C@H]3C[C@@H](O)[C@]4(C)[C@H]5COC(=O)C5=CC[C@H]4[C@]3(C)CC[C@@H]12
K562
  CC50: 31.1 µM
Escherichia coli
  MIC: > 100 µg/mL
Proteus vulgaris
  MIC: > 100 µg/mL
Salmonella typhimurium
  MIC: > 100 µg/mL
Micrococcus luteus
  MIC: > 100 µg/mL
Bacillus subtilis
  MIC: > 100 µg/mL
Staphylococcus aureus
  MIC: > 100 µg/mL
[1]
  IC50: 133 µM

## CC(=O)O[C@@H]1C[C@@H]2[C@@]3(C)CCCC(C)(C)[C@@H]3CC[C@@]2(C)[C@@H]2CC=C3C(=O)O[C@@H](O)[C@@H]3[C@@]12C
K562
  CC50: 28.3 µM
Escherichia coli
  MIC: > 100 µg/mL
Proteus vulgaris
  MIC: 6.25 µg/mL (≈ 14.1 µM)
Salmonella typhimurium
  MIC: > 100 µg/mL
Micrococcus luteus
  MIC: > 100 µg/mL
Bacillus subtilis
  MIC: 6.25 µg/mL (≈ 14.1 µM)
Staphylococcus aureus
  MIC: > 100 µg/mL
[1]
  IC50: 112 µM

## O=C(O)CC[N+](=O)[O-]
[1]
  IC50: 27.9 µM

## CO[C@@H]1C[C@H]2[C@]3(C)CC[C@H]4C(C)(C)CCC[C@]4(C)[C@H]3C[C@@H](OC(C)=O)[C@]2(C)C2=C1C(=O)O[C@H]2O
K562
  CC50: 36.7 µM
Escherichia coli
  MIC: 50 µg/mL (≈ 105 µM)
Proteus vulgaris
  MIC: 3.12 µg/mL (≈ 6.58 µM)
Salmonella typhimurium
  MIC: 12.5 µg/mL (≈ 26.3 µM)
Micrococcus luteus
  MIC: 25 µg/mL (≈ 52.7 µM)
Bacillus subtilis
  MIC: 0.78 µg/mL (≈ 1.64 µM)
Staphylococcus aureus
  MIC: 25 µg/mL (≈ 52.7 µM)

## CC(=O)O[C@@H]1C[C@@H]2[C@@]3(C)CCCC(C)(C)[C@@H]3CC[C@@]2(C)[C@@H]2CC=C3CO[C@@H](O)[C@@H]3[C@@]12C
K562
  CC50: 31.3 µM
Escherichia coli
  MIC: > 100 µg/mL
Proteus vulgaris
  MIC: > 100 µg/mL
Salmonella typhimurium
  MIC: > 100 µg/mL
Micrococcus luteus
  MIC: > 100 µg/mL
Bacillus subtilis
  MIC: > 100 µg/mL
Staphylococcus aureus
  MIC: > 100 µg/mL
[1]
  IC50: 55.3 µM

## CO[C@@H]1C[C@H]2[C@]3(C)CC[C@H]4C(C)(C)CCC[C@]4(C)[C@H]3C[C@@H](OC(C)=O)[C@]2(C)C2=C1[C@H](O)OC2=O (mixture of isomers)
K562
  CC50: 14.8 µM
Escherichia coli
  MIC: > 100 µg/mL
Proteus vulgaris
  MIC: 1.56 µg/mL
Salmonella typhimurium
  MIC: 12.5 µg/mL
Micrococcus luteus
  MIC: 25 µg/mL
Bacillus subtilis
  MIC: < 0.39 µg/mL
Staphylococcus aureus
  MIC: 25 µg/mL

## CC1(C)S[C@@H]2[C@H](NC(=O)[C@H](N)c3ccccc3)C(=O)N2[C@H]1C(=O)O [AMPICILLIN]
Escherichia coli
  MIC: 6.25 µg/mL (≈ 17.9 µM)
Proteus vulgaris
  MIC: 1.56 µg/mL (≈ 4.46 µM)
Salmonella typhimurium
  MIC: 1.56 µg/mL (≈ 4.46 µM)
Micrococcus luteus
  MIC: 0.39 µg/mL (≈ 1.12 µM)
Bacillus subtilis
  MIC: 0.78 µg/mL (≈ 2.23 µM)
Staphylococcus aureus
  MIC: 1.56 µg/mL (≈ 4.46 µM)

## COc1cccc2c1C(=O)c1c(O)c3c(c(O)c1C2=O)C[C@@](O)(C(=O)CO)C[C@@H]3O[C@H]1C[C@H](N)[C@H](O)[C@H](C)O1 [DOXORUBICIN]
K562
  CC50: 9.7 µM
